In patent publication US7547709B2, “Chain-breaking antioxidants” (Vanderbilt University, priority 2004, dated 2009):
Where two headings read alike, the source gives them in different places. Marks after values point to notes of the source that are not given here.

Columns and labels:
[1] = for O—H BDE, absolute measured value (±2 SD): EPR equilibration; for O—H BDE, absolute measured value (±2 SD) / Experimental substituent effect on O—H BDE, 5-pyrimidinols (vi): solution phase; for O—H BDE: O—H bond dissociation enthalpy: Table A; for Experimental substituent effect on O—H BDE, 5-pyrimidinols (vi): 298 K, relative to unsubstituted (vi)
[2] = for k/alkyl: second order rate constant for reaction with alkyl radicals: Table A
[3] = Reaction with peroxyl radicals, oxygen consumption in inhibited autoxidation of styrene; assay type: physicochemical; details: for Rate constants with peroxyl radicals, pyrimidinol versus phenolic counterpart: (vi)/(iv) pair; for k/peroxyl: second order rate constant for reaction with peroxyl radicals: Table A; for Rate constant for reaction with peroxyl radicals: benzene, 323 K
[4] = open atmosphere
[5] = Burton et al. 1985; cited from earlier work
[6] = solution phase, 298 K, from ref 2C, cited from earlier work; for Experimental substituent effect on O—H BDE, phenols (iv): relative to unsubstituted (iv)
[7] = benzene, 298 K, reported in ref 12, cited from earlier work
[8] = parameters: key: Not an air-stable compound; details: Table 2, column (iv); cited from earlier work

Oc1cncnc1 [Example 1, 5-Pyrimidinol]
O—H BDE: O—H bond dissociation enthalpy (estimate) ([1]; Estimate based upon other results to date for other 5-pyrimidinols): 91.3^a
k/alkyl: second order rate constant for reaction with alkyl radicals [2]: 3.6 × 10^6

Cc1nc(C)c(O)c(C)n1 [Example 2, 2,4,6-Trimethyl-5-pyrimidinol]
Rate constants with peroxyl radicals, pyrimidinol versus phenolic counterpart [3]: ≤ 3
k/peroxyl: second order rate constant for reaction with peroxyl radicals [3]: 3.3 ± 0.4 × 10^4
Rate constant for reaction with peroxyl radicals [3]: 3.3 ± 0.4 × 10^4 M^−1 s^−1
O—H BDE, absolute measured value (±2 SD) [1]: 85.2 ± 0.5 kcal/mol
O—H BDE: O—H bond dissociation enthalpy [1]: 85.2
Experimental substituent effect on O—H BDE, 5-pyrimidinols (vi) [1]: -5.9 kcal/mol
k/alkyl: second order rate constant for reaction with alkyl radicals [2]: 4.6 × 10^5
Rate constant for reaction with alkyl radicals (estimate) ([2]; benzene, 298 K, neophyl clock (N), estimate from correlations of k and β for CH3CN, EtOAc, t-BuOH): 4.6 × 10^5 (N)^c,d M^−1 s^−1
Deuterium kinetic isotope effect (kH/kD), alkyl radicals ([2]; dry solvents containing D2O): 3.1

Cc1nc(C(C)(C)C)c(O)c(C(C)(C)C)n1 [Example 3, 2-Methyl-4,6-di-tert-butyl-5-pyrimidinol]
Rate constants with peroxyl radicals, pyrimidinol versus phenolic counterpart [3]: roughly the same
k/peroxyl: second order rate constant for reaction with peroxyl radicals [3]: 2.2 ± 0.3 × 10^4
Rate constant for reaction with peroxyl radicals [3]: 2.2 ± 0.3 × 10^4 M^−1 s^−1
O—H BDE, absolute measured value (±2 SD) [1]: 84.10 ± 0.25 kcal/mol
O—H BDE: O—H bond dissociation enthalpy [1]: 84.1
Experimental substituent effect on O—H BDE, 5-pyrimidinols (vi) [1]: -7.0 kcal/mol
k/alkyl: second order rate constant for reaction with alkyl radicals [2]: 3.2 ± 0.5 × 10^4
Rate constant for reaction with alkyl radicals ([2]; benzene, 298 K, neophyl radical clock (N)): 3.2 ± 0.5 × 10^4 (N) M^−1 s^−1

COc1nc(C)c(O)c(C)n1 [Example 4, 2-Methoxy-4,6-dimethyl-5-pyrimidinol]
O—H BDE: O—H bond dissociation enthalpy [1]: 82.5

Cc1nc(N(C)C)nc(C)c1O [Example 5, 2-N,N-Dimethylamino-4,6-dimethyl-5-pyrimidinol]
k/peroxyl: second order rate constant for reaction with peroxyl radicals [3]: 8.6 ± 0.5 × 10^6
Rate constant for reaction with peroxyl radicals [3]: 8.6 ± 0.5 × 10^6f M^−1 s^−1
Deuterium kinetic isotope effect (kH/kD), peroxyl radicals ([3]; dry solvents containing D2O): 3.1
O—H BDE, absolute measured value (±2 SD) [1]: 78.16 ± 0.25 kcal/mol
O—H BDE: O—H bond dissociation enthalpy [1]: 78.2
O—H BDE difference versus a-TOH, experiment ([1]; relative to a-TOH): -0.1 kcal/mol
Experimental substituent effect on O—H BDE, 5-pyrimidinols (vi) [1]: -12.9 kcal/mol
Stability to air oxidation, in words [4]: without degradation by air oxidation
k/alkyl: second order rate constant for reaction with alkyl radicals [2]: 2.9 ± 1.1 × 10^6
Rate constant for reaction with alkyl radicals ([2]; benzene, 298 K, 5-hexenyl radical clock (H)): 2.9 ± 1.1 × 10^6 (H) M^−1 s^−1
Rate of reaction with alkyl radicals relative to α-TOH ([2]; versus α-TOH): 5 times

CCN1CCCc2c(C)c(O)c(C)c(C)c21 [Formula 3b]
Reactivity with peroxyl radicals compared to tocopherol, in words [5]: react slowly with peroxyl radicals

Oc1ccccc1 [iv, phenol]
O—H BDE of unsubstituted phenol, absolute value [6]: (88.3) kcal/mol

Cc1cc(C)c(O)c(C)c1 [iv-b]
Rate constant for reaction with peroxyl radicals [3]: 1.1 ± 0.1 × 10^5 M^−1 s^−1
Rate constant for reaction with alkyl radicals ([7]; neophyl clock (N)): 8.5 ± 0.2 × 10^4 (N)^e M^−1 s^−1
Experimental substituent effect on O—H BDE, phenols (iv) [6]: -5.6 kcal/mol

Cc1cc(C(C)(C)C)c(O)c(C(C)(C)C)c1 [iv-c]
Rate constant for reaction with peroxyl radicals [3]: 1.8 ± 0.3 × 10^4 M^−1 s^−1
Rate constant for reaction with alkyl radicals ([7]; neophyl clock (N)): 4.8 ± 1.5 × 10^3 (N)^e M^−1 s^−1
Experimental substituent effect on O—H BDE, phenols (iv) [6]: -7.3 kcal/mol

Cc1cc(N(C)C)cc(C)c1O [iv-d]
Air stability, footnote letter in place of O—H BDE [8]: d

α-tocopherol [a-TOH (1)]
Rate constant for reaction with peroxyl radicals [3]: 4.1 ± 0.4 × 10^6 M^−1 s^−1
Rate constant for reaction with alkyl radicals ([7]; 5-hexenyl clock (H)): 6.0 ± 1.5 × 10^5 (H)^e M^−1 s^−1
Experimental substituent effect on O—H BDE, phenols (iv) [6]: −10.0^c kcal/mol
